Laboratory results from patent US9861616B2, “Methods for treating respiratory diseases and formulations therefor” (priority 2013, dated 2018).
Like-named read-outs stand apart in the source and are kept apart here.

Experiments:
[1] = test system: B. cepacia BCEP 953, BCEP 954; test: Time-kill macrobroth MICs; assay type: cell-based
Protocol: (§1) Original MICs of each strain to CEM-101 and other comparators were tested by CLSI microdilution methodology. Trays were obtained from Trek, Inc., Cleveland, Ohio. Time-kill macrobroth MIC dilution by CLSI was performed for all synergy testing.
(§2) Two of the MRSA strains were chosen and tested for synergy, together with the 4 Gram-negative strains mentioned above. Broth macrodilution formed the basis of MICs used in time-kill experiments, as detailed below. The kill kinetics of each drug was tested alone by incubating an initial inoculum of 5×10^5 to 5×10^6 cfu/mL with drug concentrations at the MIC, three dilutions above and three dilutions below the MIC (½, ¼ and ⅛×MIC). Viability counts were performed after 0, 3, 6, 12 and 24 h incubation at 37° C. in a shaking water bath by plating onto trypticase soy-5% sheep blood agar plates.

[2] = test system: P. aeruginosa PSAR 461, PSAR 468; test: Time-kill macrobroth MICs; assay type: cell-based
Protocol: as §1, §2

[3] = test system: P. aeruginosa strains from cystic fibrosis patients; test: Macrobroth dilution MICs, CF strains; assay type: cell-based; conditions: 2 P. aeruginosa strains from cystic fibrosis patients
Protocol: (§3) Two strains each of mucoid P. aeruginosa (both pyocyanin positive) and […] MRSA (only one strain with gold colonies) isolated from patients at a CF clinic were tested. Additionally, 2 B. cepacia strains were acquired, from Hershey Medical Center. All strains were identified by standard methods. Only one strain per patient was tested. MLVA was done on all strains to examine clonality, and confirmed that examination is not taking place on only one or a few clones. Strains will be stored in skim milk at −70° C. until use.
as §1

[4] = test system: B. cepacia strains from cystic fibrosis patients; test: Macrobroth dilution MICs, CF strains; assay type: cell-based; conditions: 2 B. cepacia strains from cystic fibrosis patients
Protocol: as §3, §1

[5] = test system: MRSA SA 2230, SA 2232; test: Time-kill macrobroth MICs; assay type: cell-based, S. aureus
Protocol: as §1, §2

[6] = test system: MRSA strains from CF patients; test: Microdilution MICs against 40 MRSA strains from CF patients; assay type: cell-based, S. aureus
Protocol: as §3, §1

[7] = 40 MRSA strains from CF patients
[8] = Staphylococcus aureus, 40 MRSA strains from CF patients, read-out: MIC50
[9] = Staphylococcus aureus, 40 MRSA strains from CF patients, read-out: MIC90

NCC[C@H](O)C(=O)N[C@@H]1C[C@H](N)[C@@H](O[C@H]2O[C@H](CN)[C@@H](O)[C@H](O)[C@H]2O)[C@H](O)[C@H]1O[C@H]1O[C@H](CO)[C@@H](O)[C@H](N)[C@H]1O [Amikacin]
Time-kill Macrobroth MIC ([1]; strain BCEP 953): 512 µg/mL | Time-kill Macrobroth MIC ([1]; strain BCEP 954): 256 µg/mL | Time-kill Macrobroth MIC ([2]; strain PSAR 461): 8.0 µg/mL | Time-kill Macrobroth MIC ([2]; strain PSAR 468): 4.0 µg/mL | MIC Range [3]: 2 to 8 µg/mL | MIC Range [4]: 256 µg/mL | Time-kill Macrobroth MIC ([5]; strain SA 2230): 32.0 µg/mL | Time-kill Macrobroth MIC ([5]; strain SA 2232): 64.0 µg/mL

CCCCCCCCCC(=O)N[C@@H](Cc1c[nH]c2ccccc12)C(=O)N[C@H](CC(N)=O)C(=O)N[C@@H](CC(=O)O)C(=O)N[C@@H]1C(=O)NCC(=O)N[C@@H](CCCN)C(=O)N[C@@H](CC(=O)O)C(=O)N[C@H](C)C(=O)N[C@@H](CC(=O)O)C(=O)NCC(=O)N[C@H](CO)C(=O)N[C@@H]([C@H](C)CC(=O)O)C(=O)N[C@@H](CC(=O)c2ccccc2N)C(=O)O[C@@H]1C [Daptomycin]
MIC Range [6, 7]: 0.5-1^ μg/mL | MIC50 [6, 8]: 0.5 µg/mL | MIC90 [6, 9]: 1 µg/mL

CC(=O)NC[C@H]1CN(c2ccc(N3CCOCC3)c(F)c2)C(=O)O1 [Linezolid]
MIC Range [6, 7]: 1 to 4 µg/mL | MIC50 [6, 8]: 2 µg/mL | MIC90 [6, 9]: 2 µg/mL

CN(C)c1cc(NC(=O)CNC(C)(C)C)c(O)c2c1C[C@H]1C[C@H]3[C@H](N(C)C)C(O)=C(C(N)=O)C(=O)[C@@]3(O)C(O)=C1C2=O [Tigecycline]
MIC Range [6, 7]: 0.12 to 0.25 µg/mL | MIC50 ([6]; Staphylococcus aureus, MRSA): 0.12 µg/mL | MIC90 ([6]; Staphylococcus aureus, MRSA): 0.25 µg/mL

NC[C@H]1O[C@H](O[C@H]2[C@H](O)[C@@H](O[C@H]3O[C@H](CO)[C@@H](O)[C@H](N)[C@H]3O)[C@H](N)C[C@@H]2N)[C@H](N)C[C@@H]1O [Tobramycin]
Time-kill Macrobroth MIC ([1]; strain BCEP 953): 128 µg/mL | Time-kill Macrobroth MIC ([1]; strain BCEP 954): 128 µg/mL | Time-kill Macrobroth MIC ([2]; strain PSAR 461): 2.0 µg/mL | Time-kill Macrobroth MIC ([2]; strain PSAR 468): 1.0 µg/mL | MIC Range [3]: 0.25 to 1.0 µg/mL | MIC Range [4]: 128 µg/mL | Time-kill Macrobroth MIC ([5]; strain SA 2230): 4.0 µg/mL | Time-kill Macrobroth MIC ([5]; strain SA 2232): > 512 µg/mL

CN[C@H](CC(C)C)C(=O)N[C@H]1C(=O)N[C@@H](CC(N)=O)C(=O)N[C@H]2C(=O)N[C@H]3C(=O)N[C@H](C(=O)N[C@H](C(=O)O)c4cc(O)cc(O)c4-c4cc3ccc4O)[C@H](O)c3ccc(c(Cl)c3)Oc3cc2cc(c3O[C@@H]2O[C@H](CO)[C@@H](O)[C@H](O)[C@H]2O[C@H]2C[C@](C)(N)[C@H](O)[C@H](C)O2)Oc2ccc(cc2Cl)[C@H]1O [Vancomycin]
MIC Range [6, 7]: 0.5-1^ μg/mL | MIC50 ([6]; Staphylococcus aureus, MRSA): 0.5 µg/mL | MIC90 ([6]; Staphylococcus aureus, MRSA): 1 µg/mL

Teicoplanin
MIC50 [6, 7]: 0.5 µg/mL | MIC90 [6, 7]: 1 µg/mL | MIC Range [6, 7]: 0.25 to 1 µg/mL
